Measured values: the supplement of paper PMC10307832

Key:
Assay in all cases: relative viability (nuclei count vs DMSO), 5 days (fraction); higher = more cells survive
[1] = test system: LCLC-103H
How it was run: (§1)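 Relative viability was taken as the ratio of nuclei in treated wells to nuclei in vehicle wells. Lung cancer cell lines in 1536-well plates received compounds by pin tool one day after seeding, either one drug alone or a fixed anchor-drug dose plus five library-drug doses (not always all listed) in √10 steps. Nuclei were counted on 4× images after 5 days of treatment, and values are medians of duplicate plates.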

[2] = test system: NCI-H1793
How it was run: as §1

[3] = test system: LXF-289
How it was run: as §1

[4] = test system: NCI-H596
How it was run: as §1

[5] = test system: NCI-H322M
How it was run: as §1

[6] = test system: EPLC-272H
How it was run: as §1

[7] = test system: NCI-H3122
How it was run: as §1

[8] = test system: NCI-H2023
How it was run: as §1

[9] = test system: UMC-11
How it was run: as §1

[10] = test system: BEN
How it was run: as §1

[11] = test system: NCI-H2126
How it was run: as §1

[12] = test system: NCI-H358
How it was run: as §1

[13] = test system: EMC-BAC-2
How it was run: as §1

[14] = test system: EKVX
How it was run: as §1

[15] = test system: NCI-H1650
How it was run: as §1

[16] = test system: NCI-H2087
How it was run: as §1

[17] = test system: SW 1573
How it was run: as §1

[18] = test system: A-427
How it was run: as §1

[19] = test system: SK-LU-1
How it was run: as §1

[20] = test system: NCI-H1651
How it was run: as §1

[21] = test system: COR-L23
How it was run: as §1

[22] = test system: HCC-44
How it was run: as §1

[23] = test system: 201T
How it was run: as §1

`C=C1C(=O)O[C@@H](CCCCCCCC)[C@@H]1C(=O)O` [C-75] + Nc1ncn([C@H]2C[C@H](O)[C@@H](CO)O2)c(=O)n1 [Decitabine] (partner 2 µM) was tested, and the relative viability ([1]; first compound 0.08 µM) was 0.697, the relative viability ([1]; first compound 0.253 µM) was 0.716 and the relative viability ([1]; first compound 0.8 µM) was 0.674. It also gave a relative viability ([1]; first compound 2.53 µM) of 0.623, a relative viability ([1]; first compound 8 µM) of 0.725 and a relative viability ([2]; first compound 0.08 µM) of 0.485. The relative viability ([2]; first compound 0.253 µM) was 0.571, the relative viability ([2]; first compound 2.53 µM) was 0.275 and the relative viability ([2]; first compound 8 µM) was 0.449. The relative viability ([3]; first compound 0.08 µM) was 0.361, the relative viability ([3]; first compound 0.253 µM) was 0.396 and the relative viability ([3]; first compound 0.8 µM) was 0.317. It also gave a relative viability ([3]; first compound 2.53 µM) of 0.3, a relative viability ([3]; first compound 8 µM) of 0.399 and a relative viability ([4]; first compound 0.08 µM) of 0.943. For the same compound, the relative viability ([4]; first compound 0.253 µM) was 1.16, the relative viability ([4]; first compound 0.8 µM) was 0.953 and the relative viability ([4]; first compound 2.53 µM) was 1.07. For the same compound, the relative viability ([4]; first compound 8 µM) was 0.96, the relative viability ([5]; first compound 0.08 µM) was 0.693 and the relative viability ([5]; first compound 0.253 µM) was 0.782. It also gave a relative viability ([5]; first compound 0.8 µM) of 0.604, a relative viability ([5]; first compound 8 µM) of 0.66 and a relative viability ([6]; first compound 0.08 µM) of 0.338. The relative viability ([6]; first compound 0.253 µM) was 0.436, the relative viability ([6]; first compound 0.8 µM) was 0.334 and the relative viability ([6]; first compound 2.53 µM) was 0.33. It also gave a relative viability ([6]; first compound 8 µM) of 0.349, a relative viability ([7]; first compound 0.08 µM) of 0.423 and a relative viability ([7]; first compound 0.253 µM) of 0.486. The relative viability ([7]; first compound 0.8 µM) was 0.355, the relative viability ([7]; first compound 2.53 µM) was 0.346 and the relative viability ([7]; first compound 8 µM) was 0.455. The relative viability ([8]; first compound 0.08 µM) was 0.242, the relative viability ([8]; first compound 0.253 µM) was 0.22 and the relative viability ([8]; first compound 0.8 µM) was 0.22. For the same compound, the relative viability ([8]; first compound 8 µM) was 0.188, the relative viability ([9]; first compound 0.08 µM) was 0.696 and the relative viability ([9]; first compound 0.253 µM) was 0.642. For the same compound, the relative viability ([9]; first compound 0.8 µM) was 0.577, the relative viability ([9]; first compound 2.53 µM) was 0.642 and the relative viability ([9]; first compound 8 µM) was 0.434. It also gave a relative viability ([10]; first compound 0.08 µM) of 0.764, a relative viability ([10]; first compound 0.253 µM) of 0.733 and a relative viability ([10]; first compound 0.8 µM) of 0.654. It also gave a relative viability ([10]; first compound 2.53 µM) of 0.738, a relative viability ([10]; first compound 8 µM) of 0.713 and a relative viability ([11]; first compound 0.08 µM) of 0.598. The relative viability ([11]; first compound 0.253 µM) was 0.617, the relative viability ([11]; first compound 0.8 µM) was 0.609 and the relative viability ([11]; first compound 2.53 µM) was 0.561. For the same compound, the relative viability ([11]; first compound 8 µM) was 0.534, the relative viability ([12]; first compound 0.08 µM) was 0.212 and the relative viability ([12]; first compound 0.253 µM) was 0.211. For the same compound, the relative viability ([12]; first compound 0.8 µM) was 0.203, the relative viability ([12]; first compound 8 µM) was 0.18 and the relative viability ([13]; first compound 0.08 µM) was 1.02. For the same compound, the relative viability ([13]; first compound 0.253 µM) was 0.984, the relative viability ([13]; first compound 0.8 µM) was 0.983 and the relative viability ([13]; first compound 2.53 µM) was 0.834. For the same compound, the relative viability ([13]; first compound 8 µM) was 0.947, the relative viability ([14]; first compound 0.08 µM) was 0.399 and the relative viability ([14]; first compound 0.253 µM) was 0.397. The relative viability ([14]; first compound 0.8 µM) was 0.336, the relative viability ([14]; first compound 8 µM) was 0.325 and the relative viability ([15]; first compound 0.08 µM) was 0.362. It also gave a relative viability ([15]; first compound 0.253 µM) of 0.384, a relative viability ([15]; first compound 0.8 µM) of 0.453 and a relative viability ([15]; first compound 8 µM) of 0.387. The relative viability ([16]; first compound 0.08 µM) was 0.281, the relative viability ([16]; first compound 0.253 µM) was 0.269 and the relative viability ([16]; first compound 0.8 µM) was 0.35. The relative viability ([16]; first compound 2.53 µM) was 0.217, the relative viability ([16]; first compound 8 µM) was 0.231 and the relative viability ([17]; first compound 0.08 µM) was 0.464. The relative viability ([17]; first compound 0.253 µM) was 0.51, the relative viability ([17]; first compound 0.8 µM) was 0.434 and the relative viability ([17]; first compound 2.53 µM) was 0.385. It also gave a relative viability ([17]; first compound 8 µM) of 0.351, a relative viability ([18]; first compound 0.08 µM) of 0.607 and a relative viability ([18]; first compound 0.253 µM) of 0.533. For the same compound, the relative viability ([18]; first compound 0.8 µM) was 0.487, the relative viability ([18]; first compound 2.53 µM) was 0.428 and the relative viability ([18]; first compound 8 µM) was 0.512. It also gave a relative viability ([19]; first compound 0.08 µM) of 0.64, a relative viability ([19]; first compound 0.253 µM) of 0.588 and a relative viability ([19]; first compound 0.8 µM) of 0.616. It also gave a relative viability ([19]; first compound 2.53 µM) of 0.532, a relative viability ([19]; first compound 8 µM) of 0.467 and a relative viability ([20]; first compound 0.08 µM) of 0.565. For the same compound, the relative viability ([20]; first compound 0.253 µM) was 0.685, the relative viability ([20]; first compound 0.8 µM) was 0.559 and the relative viability ([20]; first compound 2.53 µM) was 0.381. The relative viability ([20]; first compound 8 µM) was 0.599, the relative viability ([21]; first compound 0.08 µM) was 0.483 and the relative viability ([21]; first compound 0.253 µM) was 0.486. For the same compound, the relative viability ([21]; first compound 0.8 µM) was 0.415, the relative viability ([21]; first compound 2.53 µM) was 0.459 and the relative viability ([21]; first compound 8 µM) was 0.396. It also gave a relative viability ([22]; first compound 0.08 µM) of 1.02, a relative viability ([22]; first compound 0.253 µM) of 0.922 and a relative viability ([22]; first compound 0.8 µM) of 0.946. For the same compound, the relative viability ([22]; first compound 2.53 µM) was 0.8, the relative viability ([22]; first compound 8 µM) was 0.903 and the relative viability ([23]; first compound 0.08 µM) was 0.844. The relative viability ([23]; first compound 0.253 µM) was 0.938, the relative viability ([23]; first compound 0.8 µM) was 0.842 and the relative viability ([23]; first compound 2.53 µM) was 0.627. For the same compound, the relative viability ([23]; first compound 8 µM) was 0.813.
